Data on 8 molecules can be found in ChEMBL document CHEMBL1201862, “PubChem BioAssay data set” (2004).

Test systems include ACHN; CCRF-CEM; EKVX; HCT-116; HCT-15; HOP-62; HOP-92; IGROV-1; M14; MCF7; NCI-H460; OVCAR-5; PC-3; SF-268; SF-539; SNB-19; SR; TK-10; MOLT-4; NCI-H226.
What all share (test): NCI tumour cell line growth inhibition, 48 h

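Where inhibition never reached the appropriate level, the endpoint shown equals the highest concentration tested. Otherwise, values were interpolated linearly from a five-concentration, 48-hour dose response in 96-well plates. GI50 is the concentration that inhibits growth by half.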 Active and inactive are the calls of the source. Cut-off read from the data, not from the text of the source: active = GI50 up to about 1.1 µM and inactive = higher.

Take `[O-][S+](Cc1ccccc1)c1ccccc1Cn1cccc1` (stereo not drawn): the GI50 was > 100 µM (inactive) with ACHN; > 100 µM (inactive) in the assay on CCRF-CEM; > 100 µM (inactive) in the assay with EKVX; > 100 µM (inactive) with HCT-116; above 100 µM with HCT-15; > 100 µM (inactive) in the assay on HOP-62. The GI50 is 96.6 µM (inactive) with HOP-92; > 100 µM (inactive) in the assay on IGROV-1; > 100 µM (inactive) in the assay with M14; > 100 µM (inactive) in the assay on MCF7; > 100 µM (inactive) in the assay on NCI-H460; > 100 µM (inactive) in the assay with OVCAR-5. Also, the GI50 is > 100 µM (inactive) with PC-3; > 100 µM (inactive) with SF-268; > 100 µM (inactive) with SF-539; > 100 µM (inactive) with SNB-19; 23 µM (inactive) with SR; > 100 µM (inactive) with TK-10.

For `O=C1c2cc3c(cc2CC12Cc1cc4c(cc1C2=O)CCC4)CCCC3` (stereo not drawn), the GI50 was > 100 µM (inactive) with ACHN; > 100 µM (inactive) in the assay on CCRF-CEM; 95.1 µM (inactive) in the assay with EKVX; > 100 µM (inactive) with HCT-116; above 100 µM in the assay with HCT-15; > 100 µM (inactive) in the assay with HOP-62. The GI50 with HOP-92, with IGROV-1, in the assay with M14, in the assay on MCF7, with MOLT-4 and with NCI-H460 was > 100 µM (inactive) in each case. In addition, the GI50 in the assay on OVCAR-5, in the assay on PC-3, in the assay with SF-268, in the assay with SF-539, in the assay with SNB-19 and in the assay with SR was > 100 µM (inactive) throughout. In addition, the GI50 with TK-10 is > 100 µM (inactive).

In the case of `Cc1ccc(NC(=O)c2cc(S(=O)(=O)Nc3n[nH]c(=O)[nH]3)c(SSc3cc(Cl)c(C(=O)Nc4ccc(C)cc4)cc3S(=O)(=O)Nc3n[nH]c(=O)[nH]3)cc2Cl)cc1`, the GI50 is > 100 µM (inactive) in the assay with ACHN; > 100 µM (inactive) in the assay on CCRF-CEM; > 100 µM (inactive) in the assay on EKVX; > 100 µM (inactive) in the assay on HCT-116; above 100 µM in the assay with HCT-15; > 100 µM (inactive) in the assay on HOP-62. Besides, the GI50 in the assay with HOP-92, in the assay on IGROV-1, in the assay with M14, in the assay with MCF7, with MOLT-4 and with NCI-H226 was > 100 µM (inactive) in each case. In addition, the GI50 in the assay on NCI-H460, in the assay with OVCAR-5, in the assay with PC-3, with SF-268, with SNB-19 and with SR was > 100 µM (inactive) each time. The GI50 with TK-10 is > 100 µM (inactive).

As for `O=C(O)C1(C(=O)O)CC1(C(=O)O)C(=O)O`, the GI50 is > 100 µM (inactive) in the assay on ACHN; > 100 µM (inactive) in the assay on CCRF-CEM; > 100 µM (inactive) with EKVX; > 100 µM (inactive) in the assay on HCT-116; above 100 µM with HCT-15; > 100 µM (inactive) in the assay with HOP-62. Also, the GI50 in the assay with IGROV-1, in the assay with M14, in the assay with MCF7, in the assay with MOLT-4, with NCI-H226 and in the assay with NCI-H460 was > 100 µM (inactive) in each case. Moreover, the GI50 in the assay on OVCAR-5, with PC-3, with SF-268, with SF-539, with SNB-19 and in the assay on SR was > 100 µM (inactive) each time. Further, in the assay with TK-10, the GI50 is > 100 µM (inactive).

On to `CSCCC(NC(c1ccccc1)c1ccccc1)[PH](=O)O` (stereo not drawn), for which the GI50 in the assay on ACHN was > 100 µM (inactive); in the assay on CCRF-CEM, > 100 µM (inactive); in the assay with EKVX, > 100 µM (inactive); with HCT-116, > 100 µM (inactive); with HCT-15, above 100 µM; with HOP-62 it was > 100 µM (inactive). In addition, the GI50 in the assay on HOP-92, with IGROV-1, with M14, in the assay with MCF7, in the assay on MOLT-4 and in the assay with NCI-H226 was > 100 µM (inactive) each time. Moreover, the GI50 in the assay on NCI-H460, in the assay on OVCAR-5, with PC-3, with SF-268, in the assay on SNB-19 and in the assay with SR was > 100 µM (inactive) throughout. Moreover, the GI50 in the assay with TK-10 was > 100 µM (inactive).

With `NCCCNOCCCN`, the GI50 in the assay on ACHN was > 100 µM (inactive); in the assay on HCT-116 it was > 100 µM (inactive); in the assay on HCT-15 it was above 100 µM; in the assay on HOP-62, > 100 µM (inactive); in the assay with HOP-92, 37.8 µM (inactive); in the assay on M14 it was > 100 µM (inactive). The GI50 in the assay on MCF7, in the assay on MOLT-4, in the assay on NCI-H460, with OVCAR-5, in the assay with PC-3 and with SF-268 was > 100 µM (inactive) each time. The GI50 with SF-539 was > 100 µM (inactive); in the assay on SNB-19, > 100 µM (inactive); in the assay on SR it was 2.26 µM (inactive); in the assay with TK-10 it was > 100 µM (inactive).

With `COc1ccc2c(c1O)[C@@]13C=C(O)C(=O)C=C1[C@@H](C2)N(C)CC3`, the GI50 in the assay with ACHN is 43.6 µM (inactive); with CCRF-CEM it was 43.8 µM (inactive); with EKVX it was > 100 µM (inactive); in the assay on HCT-116, 34.1 µM (inactive); with HCT-15, 68.7 µM; in the assay on HOP-62 it was 49.4 µM (inactive). The GI50 in the assay on HOP-92 is 53.2 µM (inactive); with IGROV-1, 61.1 µM (inactive); in the assay with M14, 62.2 µM (inactive); in the assay with MCF7 it was 65.2 µM (inactive); in the assay with MOLT-4, 36.1 µM (inactive); in the assay on NCI-H226 it was 56.9 µM (inactive). Moreover, the GI50 in the assay on NCI-H460 was 63.4 µM (inactive); in the assay with OVCAR-5, > 100 µM (inactive); in the assay on PC-3 it was 34.8 µM (inactive); with SF-268, 28.6 µM (inactive); with SNB-19 it was 63.1 µM (inactive); with SR, 42.7 µM (inactive). Further, the GI50 with TK-10 is > 100 µM (inactive).

Take `Cc1ccc(CC2(OCCN(C)C)CCC(C(C)(C)C)CC2)cc1` (stereo not drawn): the GI50 in the assay with ACHN was 8.02 µM (inactive); in the assay on CCRF-CEM it was 2.65 µM (inactive); in the assay with EKVX, 12.3 µM (inactive); with HCT-116, 2.26 µM (inactive); in the assay with HCT-15, 4.63 µM; with HOP-62 it was 2.55 µM (inactive). For the same molecule, the GI50 was 8.99 µM (inactive) with IGROV-1; 1.87 µM (inactive) with M14; 3.08 µM (inactive) in the assay with MCF7; 2.04 µM (inactive) in the assay with MOLT-4; 5.28 µM (inactive) in the assay with NCI-H226; 1.79 µM (inactive) in the assay with NCI-H460. Further, the GI50 is 3.3 µM (inactive) in the assay with OVCAR-5; 3.89 µM (inactive) in the assay with PC-3; 9.33 µM (inactive) in the assay on SF-268; 3.26 µM (inactive) in the assay on SF-539; 5.28 µM (inactive) in the assay with SNB-19; 2.08 µM (inactive) in the assay with SR. The GI50 in the assay on TK-10 is 6.87 µM (inactive).
